Source: patent US6087346A, “Sigma receptor ligands and the use thereof” (Cambridge Neuroscience, Inc., priority 1996, dated 2000)
pIC50, pKi: −log10 of the molar value. Counter-ions that a name gives are not always drawn. Like-named read-outs stand apart in the source and are kept apart here.

Legend:
[1] = molecular target: sigma receptor (sigma-1 and sigma-2 sites); experiment: Sigma receptor binding assay ([^3 H]DTG, guinea pig brain membrane homogenates); conditions: for pIC50: Example 3 table, tested by the [^3 H]DTG assay of Example 2; for Ki: Table II, [^3 H]DTG 1.4 nM, guinea pig brain membranes, pH 7.4, 90 minutes room temperature, IC50 values indicated as Ki, read-out: Ki nM (± SEM)
Experimental: Briefly, frozen whole guinea-pig brains (Biotrol, Indianapolis, Ind.) were homogenized in 10 volumes (w/v) of ice-cold 320 mM sucrose using a Brinkman® polytron. The homogenate was centrifuged at 1,000× g for 20 minutes at 4° C. The supernatant was centrifuged at 20,000× g for 20 minutes at 4° C. The resulting pellet was resuspended in 10 initial volumes of 50 mM Tris/HCI buffer at pH 7.4 and centrifuged at 20,000× g for 20 minutes at 4° C. The resulting pellet was resuspended in 5 initial volumes ice-cold 50 mM Tris/HCl (pH 7.4), and the final volume was adjusted to yield a protein concentration of 3 mg/mL.
The protein concentration in the 1-ml final incubation volume was 800 μg/ml, corresponding to 32 mg of brain tissue (original wet weight) and to a tissue concentration within the linear range for specific binding.
The volume of the assays may be changed, specifically halved, so long as the concentrations of the constituents remain the same. […] Incubations were terminated after 90 minutes at room temperature by addition of 4 ml of ice-cold 50 mM Tris/HCI (pH 7.4) and rapid filtration of the membrane suspension through Whatman® GF/B or Schieicher & Schuell #32 glass-fiber filters under vacuum, using a 48-well cell harvester (Brandel). The filters were washed 2 times with 4 mL of 50 mM Tris/HCI (pH 7.4). Each filter was suspended in 10 ml Cytoscint (ICI), and radioactivity was measured by liquid scintillation spectrometry at a counting efficiency of approximately 50%. IC50 values (indicated as Ki in Tables II below) were determined by non-linear regression analysis.

sigma-1 receptor [2] = molecular target: T1, sigma-1 receptor (Cavia porcellus, UniProt Q60492); conditions: pH 8
T1 sequence (Q60492 whole entry): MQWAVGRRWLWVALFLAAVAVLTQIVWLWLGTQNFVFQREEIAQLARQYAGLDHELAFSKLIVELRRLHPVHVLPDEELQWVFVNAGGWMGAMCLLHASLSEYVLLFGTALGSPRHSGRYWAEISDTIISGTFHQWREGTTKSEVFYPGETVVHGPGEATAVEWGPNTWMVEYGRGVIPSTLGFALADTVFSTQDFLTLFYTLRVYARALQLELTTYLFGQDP
Experimental: (§1) Non-specific binding was determined in the presence of 10 μM haloperiodol. For the standard equilibrium assay the mixtures were incubated for 4-5 hours at 37° C., quenched with 4 ml of ice cold incubation buffer and rapidly filtered over Whatman GF/B glass fiber filters, followed by three 4 ml rinses with additional ice cole incubation buffer.

sigma-2 receptor = molecular target: T2, sigma-2 receptor (Cavia porcellus, UniProt H0V073); experiment: Sigma-2 binding assay ([^3 H]DTG in the presence of (+)pentazocine); set-up: species or system guinea pig
T2 construct: of guinea pig brain membranes in a total volume of 0.5 ml; from tissue; host or cells: guinea pig brain membranes
T2 sequence (H0V073 1-176): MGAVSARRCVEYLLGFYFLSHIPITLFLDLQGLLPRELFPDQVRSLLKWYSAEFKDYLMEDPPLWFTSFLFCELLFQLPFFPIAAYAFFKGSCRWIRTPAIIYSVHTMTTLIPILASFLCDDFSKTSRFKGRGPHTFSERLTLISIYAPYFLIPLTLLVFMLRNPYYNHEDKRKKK
Excerpt: Protocols of the Sigma-1 and Sigma-2 binding assays employed are as follows:

sigma-1 receptor [3] = molecular target: T1, sigma-1 receptor; experiment: biochemical
Experimental: as §1

sigma-1 site = sigma-1 site (Cavia porcellus, UniProt Q60492); conditions: Hellewell and Bowen (1990); cited from earlier work
sigma-1 site, sequence (Q60492 whole entry): as the sequence (Q60492 whole entry) above

[4] = tested on: NMDA-induced toxicity and seizures; conditions: in vivo; Pontecorvo et al.; cited from earlier work
opiate receptors = conditions: cited from earlier work
PCP receptors = conditions: cited from earlier work
gerbils = conditions: in vivo, Rao et al.; cited from earlier work
[5] = tested on: NMDA-type of glutamate receptors; conditions: Rao et al.; cited from earlier work
sigma sites = conditions: in words; cited from earlier work
DA sites = conditions: cited from earlier work

| SMILES | pIC50 (sigma-2 receptor; read-out: Sigma 2 IC50) | pKi (sigma-1 receptor [3]) | Ki [1] | also measured |
| --- | --- | --- | --- | --- |
| CN(CCCCCc1ccccc1)CCc1ccccc1 | 8.30 | – | – | pIC50 [1]: 8.89; pKi (sigma-1 receptor [2]): 9.60 |
| CNC(CCCCCc1ccccc1)CCCCCc1ccccc1 | – | – | – | pIC50 [1]: 8.53 |
| c1ccc(CCCCCNCCc2ccccc2)cc1 | – | – | – | pIC50 [1]: 8.44 |
| c1ccc(CCCCCN2CCCC2)cc1 | 7.16 | 9.12 | – | pIC50 [1]: 8.31 |
| CN(CCCCCc1cccc(C(F)(F)F)c1)CCc1ccccc1 | 8.45 | 9.23 | – | – |
| CN(CCCCCc1ccccc1)CCc1cccc(C(F)(F)F)c1 | 7.84 | 8.76 | – | – |
| CN(CCCCC(=O)c1cccc(C(F)(F)F)c1)CCc1ccccc1 | 8.90 | 9.15 | – | – |
| CN(CCCCC(O)c1cccc(C(F)(F)F)c1)CCc1ccccc1 (centres unmarked) | 8.52 | 9.02 | – | – |
| CN1CCN(CCCCCc2ccccc2)CC1 | 7.10 | 8.84 | – | – |
| CN1CCC(CCCCCc2ccccc2)CC1 | 7.01 | 9.22 | – | – |
| O=[N+]([O-])c1ccc(CCCCCN2CCCCC2)cc1 | 8.00 | 9.80 | – | – |
| c1ccc2c(c1)C1CC2C(N2CCCCC2)C1 (centres unmarked) | – | – | – | pKi (sigma-1 receptor [2]): 9.89; pIC50 (sigma-2 receptor; read-out: Sigma 2 IC50, about 2 nM [^3 H]DTG with 200 nM (+)pentazocine, guinea pig brain membranes, pH 7.4, 30 minutes room temperature): 8.28 |
| c1ccc(CCCCCN2CCCC(Cc3ccccc3)C2)cc1 (centres unmarked) | 8.38 | 10.15 | – | – |
| c1ccc(CCCCCN2CCCCC2c2ccccc2)cc1 (centres unmarked) | 8.33 | 9.80 | – | – |
| CN(CCCC=C(c1ccccc1)c1ccccc1)CCc1ccccc1 | 7.39 | 9.05 | – | – |
| CN(CCCCC(c1ccccc1)c1ccccc1)CCc1ccccc1 | 7.50 | – | – | – |
| C(CCCNCCc1ccccc1)=C(c1ccccc1)c1ccccc1 | 6.85 | – | – | – |
| CCN(CC)CCCCC(c1ccccc1)c1ccccc1 | 7.29 | 8.85 | – | – |
| CCN(CC)CCCCCc1ccccc1 | 7.05 | 8.22 | – | – |
| c1ccc(Cc2cccc(CN3CCCCC3)c2)cc1 | 7.01 | 8.26 | – | – |
| c1ccc(CCCCCN2CCCCC2Cc2ccccc2)cc1 (centres unmarked) | 7.98 | 9.44 | – | – |

| SMILES | pIC50 (sigma-2 receptor; read-out: Sigma 2 IC50) | pKi (sigma-1 receptor [3]) | Ki [1] | also measured |
| --- | --- | --- | --- | --- |
| CC(Cc1ccccc1)NCCCCCc1ccccc1 (centres unmarked) | – | 9.27 | – | pIC50 (sigma-2 receptor): 7.96 |
| CC(Cc1ccccc1)NCCCCc1ccccc1 (centres unmarked) | – | 8.13 | – | pIC50 (sigma-2 receptor): 7.32 |
| c1ccc(CNCCCN2CCN(c3ccccc3)CC2)cc1 | 6.99 | 8.71 | – | – |
| CC1CCN(CCCCCc2ccccc2)CC1 | 8.15 | 10.10 | – | – |
| CN1CCC(=CCCCCc2ccccc2)CC1 | 6.59 | 8.01 | – | – |
| c1ccc(CCNCCCCC(c2ccccc2)c2ccccc2)cc1 | 7.00 | 9.17 | – | – |
| CC1CCN(CCCC=C(c2ccccc2)c2ccccc2)CC1 | 7.60 | – | – | – |
| CC1CCN(CCCCC(c2ccccc2)c2ccccc2)CC1 | – | – | – | pKi (sigma-1 receptor [2]): 10.00; pIC50 (sigma-2 receptor; about 2 nM [^3 H]DTG with 200 nM (+)pentazocine, guinea pig brain membranes, pH 7.4, 30 minutes room temperature, read-out: Sigma 2 IC50): 7.78 |
| CC(C)=CCN1CCC2(C)c3cc(O)ccc3CC1C2C (single isomer, unassigned; (+)) [(+)pentazocine] | – | – | – | affinity for the sigma-1 site compared to the sigma-2 site (sigma-1 site): nearly two orders of magnitude higher affinity for the sigma-1 site compared to the sigma-2 site |
| OC(CCCN1CCN(c2ncc(F)cn2)CC1)c1ccc(F)cc1 (centres unmarked) [BMY-14802] | – | – | – | protective effects against NMDA-induced toxicity and seizures [4]: in vivo protective effects against NMDA-induced toxicity and seizures |
| O=C(CCCCN1CCC(c2ccc(Cl)cc2)CC1)c1ccc(Cl)c(Cl)c1 [Compound 1, 1,2,4-Dichlorophenyl-5-[4-(4-chlorophenyl)-1-piperidino]pentanone Hydrochloride] | – | – | 1.8 nM | – |
| COc1ccc(C(=O)CCCCN2CCC(c3ccccc3)CC2)cc1 [Compound 2, 1-(4-Methoxyphenyl)-5-(4-phenyl-l-piperidino)pentanone Hydrochloride] | – | – | 0.8 nM | – |
| Clc1ccc(CCCCCN2CCCCC2)cc1 [Compound 3, N-[5-(4-Chlorophenyl)pentyl]piperidine Hydrochloride] | – | – | 2 nM | – |
| O=C(CCCCN1CCC(O)(c2ccc(Cl)cc2)CC1)c1ccc(F)cc1 [Compound 4] | – | – | 2.6 nM | – |
| O=C(CCCCN1CCC(c2ccccc2)CC1)c1ccc(F)cc1 [Compound 5] | – | – | 0.8 nM | – |
| O=C(CCCCN1CCC(c2ccccc2)CC1)c1ccccc1 [Compound 6] | – | – | 0.9 nM | – |
| O=C(CCCCN1CCC(c2ccccc2)CC1)c1ccc(Cl)cc1 [Compound 7] | – | – | 0.5 nM | – |
| O=C(CCCCN1CCC(c2ccccc2)CC1)c1cccc(Cl)c1 [Compound 8] | – | – | 1.1 nM | – |
| COc1cccc(C(=O)CCCCN2CCC(c3ccccc3)CC2)c1 [Compound 9] | – | – | 1 nM | – |
| O=C(CCCCN1CCC(c2ccc(Cl)cc2)CC1)c1ccc(Cl)cc1 [Compound 10] | – | – | 1.8 nM | – |
| O=C(CCCCN1CC=C(c2ccc(Cl)cc2)CC1)c1ccc(Cl)cc1 [Compound 12] | – | – | 4.3 nM | – |

| SMILES | pIC50 (sigma-2 receptor; read-out: Sigma 2 IC50) | pKi (sigma-1 receptor [3]) | Ki [1] | also measured |
| --- | --- | --- | --- | --- |
| O=C(CCCCN1CC=C(c2ccc(F)cc2)CC1)c1ccc(Cl)cc1 [Compound 13] | – | – | 2 nM | – |
| c1ccc(CCCCCN2CCC(c3ccccc3)CC2)cc1 [Compound 14] | – | – | 0.9 nM | – |
| Clc1ccc(CCCCCN2CCC(c3ccccc3)CC2)cc1 [Compound 15] | – | – | 1.8 nM | – |
| COc1ccc(CCCCCN2CCC(c3ccccc3)CC2)cc1 [Compound 16] | – | – | 1.2 nM | – |
| O=C(CCCCN1CCCCC1)c1ccccc1 [Compound 17] | – | – | 25.2 nM | – |
| O=C(CCCCN1CCCCC1)c1ccc(F)cc1 [Compound 18] | – | – | 6.7 nM | – |
| O=C(CCCCN1CCCCC1)c1ccc(Cl)cc1 [Compound 19] | – | – | 1.2 nM | – |
| O=C(CCCCN1CCCCC1)c1cccc(Cl)c1 [Compound 20] | – | – | 3.8 nM | – |
| COc1ccc(C(=O)CCCCN2CCCCC2)cc1 [Compound 21] | – | – | 9.9 nM | – |
| COc1cccc(C(=O)CCCCN2CCCCC2)c1 [Compound 22] | – | – | 20.7 nM | – |
| c1ccc(CCCCCN2CCCCC2)cc1 [Compound 23] | – | – | 1.9 nM | – |
| COc1ccc(CCCCCN2CCCCC2)cc1 [Compound 24] | – | – | 4.7 nM | – |
| COc1cccc(CCCCCN2CCCCC2)c1 [Compound 25] | – | – | 10.7 nM | – |
| C=CCN1CCC2(C)c3cc(O)ccc3CC1C2C (centres unmarked) [NANM, N-allyl normetazocine] | – | – | – | affinity at typical opiate receptors (opiate receptors): low affinity; affinity at PCP receptors (PCP receptors): significant affinity |
| CCN(CC)CCOC(=O)C1(c2ccccc2)CCCC1 [caramiphen] | – | – | – | protective effects against NMDA-induced toxicity and seizures [4]: in vivo protective effects against NMDA-induced toxicity and seizures |
| c1cc2c(cc1CCCCCN1CCCCC1)OCO2 [drawing 25] | – | – | – | pIC50 [1]: 8.65 |
| c1cc2c(cc1CCCCCN1CCCCC1)OCO2 [drawing 38] | 7.20 | 9.49 | – | – |
| OCCN1CCN(CCCN2c3ccccc3C=Cc3ccccc32)CC1 [opipramol] | – | – | – | protection against ischemia (gerbils): protect against ischemia in gerbils; biochemical effects on NMDA-type glutamate receptors [5]: biochemical effects consistent with modulation of the NMDA-type of glutamate receptors; affinity for sigma sites (sigma sites): potent sigma receptor ligand |
| O=C(CCCN1CCC2(CC1)C(=O)NCN2c1ccccc1)c1ccc(F)cc1 [spiperone] | – | – | – | affinity for sigma sites (sigma sites): essentially no affinity for sigma sites; affinity for DA sites (DA sites): high affinity for DA sites |
